According to patent US11370798B2 (Vertex Pharmaceuticals Incorporated, priority 2012, dated 2022):

System: HCT116 colorectal cancer cells
Assay: Cisplatin sensitization assay (96 h cell viability MTS);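 further: Test-compound concentration that lowers the Cisplatin IC50 by a set fold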
Format: cell-based
Conditions: compound and Cisplatin added simultaneously, Cisplatin sensitization value
Method in brief: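 Compound and cisplatin added together as a full matrix of 2-fold serial dilutions from a top final concentration of 10 μM; cells incubated 96 h at 37° C, 5% CO2. Viability then read by MTS after 1 h further incubation; sensitization value reported in μM bins.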

Structure (SMILES)	Cisplatin Sensitization Assay
COCCOc1ccncc1NC(=O)c1c(N)nn2cc(Cl)cnc12 [I-O-55, 2-amino-6-chloro-N-(4-(2-methoxyethoxy)pyridin-3-yl)pyrazolo[1,5-a]pyrimidine-3-carboxamide]	++ (Cisplatin sensitization value>0.02 μM but <0.2 μM)
CC(C)(C#N)c1cnc2c(C(=O)Nc3cncc(F)c3N3CCN(C4COC4)CC3)c(N)nn2c1 [I-N-144]	+++ (Cisplatin sensitization value of <0.02 μM)
CN1CCC(Oc2c(F)cncc2NC(=O)c2c(N)nn3cc(F)cnc23)CC1 [I-O-89, 2-amino-6-fluoro-N-(5-fluoro-4-((1-methylpiperidin-4-yl)oxy)pyridin-3-yl)pyrazolo[1,5-a]pyrimidine-3-carboxamide]	++ (Cisplatin sensitization value>0.02 μM but <0.2 μM)
CN(C)CCOc1ccncc1NC(=O)c1c(N)nn2cc(CC#N)cnc12 [I-O-24, 2-amino-6-(cyanomethyl)-N-(4-(2-(dimethylamino)ethoxy)pyridin-3-yl)pyrazolo[1,5-a]pyrimidine-3-carboxamide]	++ (Cisplatin sensitization value>0.02 μM but <0.2 μM)
CN(C)CC(=O)N1CCN(c2c(F)cncc2NC(=O)c2c(N)nn3cc(F)cnc23)CC1 [I-N-153, 2-amino-N-(4-(4-(2-(dimethylamino)acetyl)piperazin-1-yl)-5-fluoropyridin-3-yl)-6-fluoropyrazolo[1,5-a]pyrimidine-3-carboxamide]	++ (Cisplatin sensitization value>0.02 μM but <0.2 μM)
CN1CCN(c2ccncc2NC(=O)c2c(N)nn3cc(Cl)cnc23)CC1CO (centres unmarked) [I-N-63, 2-amino-6-chloro-N-(4-(3-(hydroxymethyl)-4-methylpiperazin-1-yl)pyridin-3-yl)pyrazolo[1,5-a]pyrimidine-3-carboxamide]	++ (Cisplatin sensitization value>0.02 μM but <0.2 μM)
CN1C[C@@H]2CCN(c3ccncc3NC(=O)c3c(N)nn4cc(F)cnc34)C[C@@H]2C1=O [I-N-224, 2-amino-6-fluoro-N-(4-((3aR,7aR)-2-methyl-3-oxohexahydro-1H-pyrrolo[3,4-c]pyridin-5(6H)-yl)pyridin-3-yl)pyrazolo[1,5-a]pyrimidine-3-carboxamide]	+ (Cisplatin sensitization value>0.2 μM but <5 μM)
CC(C)(C)N1CCN(c2ccncc2NC(=O)c2c(N)nn3cc(Cl)cnc23)CC1 [I-N-34, 2-amino-N-(4-(4-(tert-butyl)piperazin-1-yl)pyridin-3-yl)-6-chloropyrazolo[1,5-a]pyrimidine-3-carboxamide]	++ (Cisplatin sensitization value>0.02 μM but <0.2 μM)
Nc1nn2cc(F)cnc2c1C(=O)Nc1cncc(F)c1N1CCC(C(=O)N2CC[C@H](N3CCCC3)C2)CC1 [I-G-58, (S)—N-(4-(4-([1,3′-bipyrrolidine]-1′-carbonyl)piperidin-1-yl)-5-fluoropyridin-3-yl)-2-amino-6-fluoropyrazolo[1,5-a]pyrimidine-3-carboxamide]	+++ (Cisplatin sensitization value of <0.02 μM)
Nc1nn2cc(F)cnc2c1C(=O)Nc1cnccc1C1CC1 [I-C-42, 2-amino-N-(4-cyclopropylpyridin-3-yl)-6-fluoropyrazolo[1,5-a]pyrimidine-3-carboxamide]	++ (Cisplatin sensitization value>0.02 μM but <0.2 μM)
N#CCc1cnc2c(C(=O)Nc3cnccc3N3CCOCC3)c(N)nn2c1 [I-N-81, 2-amino-6-(cyanomethyl)-N-(4-morpholinopyridin-3-yl)pyrazolo[1,5-a]pyrimidine-3-carboxamide]	+++ (Cisplatin sensitization value of <0.02 μM)
Nc1nn2cc(F)cnc2c1C(=O)Nc1cncc(F)c1N1CCN2C(=O)CCCC2C1 (centres unmarked) [I-N-277, 2-amino-6-fluoro-N-(5-fluoro-4-(6-oxohexahydro-1H-pyrido[1,2-a]pyrazin-2(6H)-yl)pyridin-3-yl)pyrazolo[1,5-a]pyrimidine-3-carboxamide]	+++ (Cisplatin sensitization value of <0.02 μM)
CN1CCOCC1C(=O)N1CCN(c2c(F)cncc2NC(=O)c2c(N)nn3cc(F)cnc23)CC1 (centres unmarked) [I-N-227, 2-amino-6-fluoro-N-(5-fluoro-4-(4-(4-methylmorpholine-3-carbonyl)piperazin-1-yl)pyridin-3-yl)pyrazolo[1,5-a]pyrimidine-3-carboxamide]	+++ (Cisplatin sensitization value of <0.02 μM)
Cc1cncc(NC(=O)c2c(N)nn3cc(F)cnc23)c1-n1nccc1C [I-N-237]	+ (Cisplatin sensitization value>0.2 μM but <5 μM)
CN1CCCN(c2ccncc2NC(=O)c2c(N)nn3cc(Cl)cnc23)CC1 [I-N-43, 2-amino-6-chloro-N-(4-(4-methyl-1,4-diazepan-1-yl)pyridin-3-yl)pyrazolo[1,5-a]pyrimidine-3-carboxamide]	++ (Cisplatin sensitization value>0.02 μM but <0.2 μM)
Nc1nn2cc(Cl)cnc2c1C(=O)Nc1cnccc1N1CCC(N2CC[C@H](F)C2)CC1 [I-N-103, (S)-2-amino-6-chloro-N-(4-(4-(3-fluoropyrrolidin-1-yl)piperidin-1-yl)pyridin-3-yl)pyrazolo[1,5-a]pyrimidine-3-carboxamide]	+++ (Cisplatin sensitization value of <0.02 μM)
Cc1ccncc1-c1ccncc1NC(=O)c1c(N)nn2cc(F)cnc12 [I-C-30, 2-amino-6-fluoro-N-(4-methyl-[3,4′-bipyridin]-3′-yl)pyrazolo[1,5-a]pyrimidine-3-carboxamide]	+++ (Cisplatin sensitization value of <0.02 μM)
CN1CCN(c2ccncc2NC(=O)c2c(N)nn3cc(Cl)cnc23)CC1(C)C [I-N-53, 2-amino-6-chloro-N-(4-(3,3,4-trimethylpiperazin-1-yl)pyridin-3-yl)pyrazolo[1,5-a]pyrimidine-3-carboxamide]	++ (Cisplatin sensitization value>0.02 μM but <0.2 μM)
Nc1nn2cc(Cl)cnc2c1C(=O)Nc1cnccc1O[C@@H]1CCNC1 [I-O-77, (R)-2-amino-6-chloro-N-(4-(pyrrolidin-3-yloxy)pyridin-3-yl)pyrazolo[1,5-a]pyrimidine-3-carboxamide]	++ (Cisplatin sensitization value>0.02 μM but <0.2 μM)
CN1CCN(c2cc(N)ncc2NC(=O)c2c(N)nn3cc(Cl)cnc23)CC1 [I-N-50, 2-amino-N-(6-amino-4-(4-methylpiperazin-1-yl)pyridin-3-yl)-6-chloropyrazolo[1,5-a]pyrimidine-3-carboxamide]	+ (Cisplatin sensitization value>0.2 μM but <5 μM)
Cc1nn(C)cc1-c1ccncc1NC(=O)c1c(N)nn2cc(F)cnc12 [I-C-63, 2-amino-N-(4-(1,3-dimethyl-1H-pyrazol-4-yl)pyridin-3-yl)-6-fluoropyrazolo[1,5-a]pyrimidine-3-carboxamide]	+++ (Cisplatin sensitization value of <0.02 μM)
CN1CCC(NC(=O)C2CCN(c3c(F)cncc3NC(=O)c3c(N)nn4cc(F)cnc34)CC2)C1 (centres unmarked) [I-G-24, 2-amino-6-fluoro-N-(5-fluoro-4-(4-((1-methylpyrrolidin-3-yl)carbamoyl)piperidin-1-yl)pyridin-3-yl)pyrazolo[1,5-a]pyrimidine-3-carboxamide]	+++ (Cisplatin sensitization value of <0.02 μM)
CN1CCCN(C(=O)C2CCN(c3c(F)cncc3NC(=O)c3c(N)nn4cc(F)cnc34)CC2)CC1 [I-G-6, 2-amino-6-fluoro-N-(5-fluoro-4-(4-(4-methyl-1,4-diazepane-1-carbonyl)piperidin-1-yl)pyridin-3-yl)pyrazolo[1,5-a]pyrimidine-3-carboxamide]	+++ (Cisplatin sensitization value of <0.02 μM)
Nc1nn2cc(F)cnc2c1C(=O)Nc1cnccc1-c1cccnc1F [I-C-35, 2-amino-6-fluoro-N-(2-fluoro-[3,4′-bipyridin]-3′-yl)pyrazolo[1,5-a]pyrimidine-3-carboxamide]	+++ (Cisplatin sensitization value of <0.02 μM)
Cc1ncn(-c2ccncc2NC(=O)c2c(N)nn3cc(F)cnc23)n1 [I-N-161, 2-amino-6-fluoro-N-(4-(3-methyl-1H-1,2,4-triazol-1-yl)pyridin-3-yl)pyrazolo[1,5-a]pyrimidine-3-carboxamide]	+ (Cisplatin sensitization value>0.2 μM but <5 μM)
COCC1CCN(c2ccncc2NC(=O)c2c(N)nn3cc(F)cnc23)CC1 [I-N-282, 2-amino-6-fluoro-N-(4-(4-(methoxymethyl)piperidin-1-yl)pyridin-3-yl)pyrazolo[1,5-a]pyrimidine-3-carboxamide]	+++ (Cisplatin sensitization value of <0.02 μM)
